Key:
[1] = target: T1, SeADO (cADO from Synechococcus elongates PCC7942) (Synechococcus elongatus, UniProt Q54764); assay: GC of n-hexane in headspace; type: biochemical; details: 2 mM n-heptanal, 4% DMSO, ferredoxin, ferredoxin reductase, 800 uM NADPH, 60 uM ferrous ammonium sulphate, O2, HEPES pH 7.2, 37 C
T1 construct: gene Synpcc7942_1593
T1 sequence (Q54764 1-231): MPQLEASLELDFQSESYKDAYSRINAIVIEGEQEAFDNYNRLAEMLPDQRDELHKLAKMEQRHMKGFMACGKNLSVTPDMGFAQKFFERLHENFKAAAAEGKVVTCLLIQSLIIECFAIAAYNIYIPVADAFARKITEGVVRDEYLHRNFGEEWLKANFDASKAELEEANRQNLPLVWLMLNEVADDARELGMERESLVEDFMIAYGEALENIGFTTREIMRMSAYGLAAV

[2] = target: T1, SeADO (cADO from Synechococcus elongates PCC7942); assay: X-ray crystal structure (WT1, […] A; also WT0, […] A, iron-free); GC-QqQ-MS/MS of extracted ligand; type: binding; details: co-purified ligand in substrate channel; head group bound to Fe2 of di-iron center in WT1; modelled as long-chain fatty alcohol, C18 identified by MS

CCCCCCC=O [n-heptanal]
GC of n-hexane in headspace [1]: N-heptanal was selected as the substrate to measure the activity of cADO proteins.

CCCCCCCCCCCCCCCCCCO [Lred, C18 fatty alcohol]
X-ray crystal structure (WT1, 2.3 A; also WT0, 2.26 A, iron-free); GC-QqQ-MS/MS [2]: the dominant of the remaining components was identified as a C18 fatty alcohol
